Data published in patent publication EP1246814B1, “COMPOUNDS AND METHODS FOR MODULATION OF ESTROGEN RECEPTORS” (SIGNAL PHARMACEUTICALS, INC., priority 1999, dated 2001).
Counter-ions that a name gives are not always drawn. Like-named read-outs stand apart in the source and are kept apart here. Each block holds one compound with its values, some of them ahead of it.

Tests used:
[1] = system: U2OS IL-6 ER-Minus; experiment: IL-6 production in ER-minus U2OS osteosarcoma cells; type: cell-based; conditions: Homo sapiens
[2] = molecular target: T1, human recombinant ER-α (Homo sapiens, UniProt P03372); experiment: Solid phase ER binding assay (3H-estradiol competition), ER-α
T1 sequence (P03372 1-595): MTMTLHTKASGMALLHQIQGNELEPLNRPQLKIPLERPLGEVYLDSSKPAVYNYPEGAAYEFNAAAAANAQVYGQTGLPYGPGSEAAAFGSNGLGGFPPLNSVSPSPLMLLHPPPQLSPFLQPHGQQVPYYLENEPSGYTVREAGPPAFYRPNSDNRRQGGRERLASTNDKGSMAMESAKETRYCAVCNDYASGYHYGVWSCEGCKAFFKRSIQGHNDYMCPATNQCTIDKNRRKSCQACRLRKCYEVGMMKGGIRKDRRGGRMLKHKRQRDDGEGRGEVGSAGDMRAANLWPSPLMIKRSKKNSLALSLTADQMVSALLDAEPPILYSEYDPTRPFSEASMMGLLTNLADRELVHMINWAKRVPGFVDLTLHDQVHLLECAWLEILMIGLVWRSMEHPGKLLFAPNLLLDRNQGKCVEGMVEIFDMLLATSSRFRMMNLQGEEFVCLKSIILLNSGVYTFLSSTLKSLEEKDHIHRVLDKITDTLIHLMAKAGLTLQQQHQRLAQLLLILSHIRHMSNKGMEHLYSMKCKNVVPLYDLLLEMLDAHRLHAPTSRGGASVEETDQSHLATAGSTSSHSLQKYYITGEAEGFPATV

[3] = molecular target: T2, human full-length ER-α (Homo sapiens, UniProt P03372); experiment: IL-6 production in U2OS osteosarcoma cells stably transfected with ER-α; type: cell-based
T2 construct: expression vectors for human full-length ER-α or ER-β; expressed in transfected cells
T2 sequence (P03372 1-595): T1 sequence (P03372 1-595)
Experimental: (§1) Human U2OS osteosarcoma cells (ATCC) were stably transfected with expression vectors for human full-length ER-α or ER-β, respectively, using standard molecular biology techniques. Stable subclones were generated that expressed high levels of ER-α or ER-β mRNA. The expression of ER-α and ER-β was confirmed using RNase protection analysis.
(§2) Cells were plated into 96-well plates at a density of 8000 cells per well in phenol red-free media with charcoal-stripped fetal calf serum. Twenty-four hours later, cells were either treated with vehicle (0.2% DMSO) or test compound at the concentrations indicated (in 0.2% DMSO). Thirty minutes later cells were stimulated with 10 ng/ml IL-1β and 10 ng/ml TNF-α. Twenty-four hours later the media supernatant was analyzed for cytokine production (IL-6) using commercially available ELISA kits following the manufacturer's instructions. Cytokine production in the presence of vehicle (0.2% DMSO) was set to 100%.

[4] = system: IL-6; experiment: Human bone cell co-culture system, IL-6 production; type: cell-based; conditions: for IC50: human bone co-culture system of Example 12
Experimental: (§3) The generation of osteoblastic cells from normal adult femoral travecular bone from patients without evidence of metabolic bone disease was carried out as previously described (Kung Sutherland et al., Osteoporosis International 5:335-343, 1995; Wong et al., J Bone Miner 5:803-813, 1990). Bone fragments were cleaned of adherent tissue and blood and cultured for 4 weeks in medium containing Ham's F12 supplemented with 28 mM HEPES, pH 7.4, 10% FCS, 1.1 mM CaCl2, 2 mM glutamine, and 1% antibiotic-antimycotic agent. Upon confluency, the cells were harvested and immortalized using a retroviral vector (pLXSN) containing the neomycin resistance gene and the human papillomaviral (HPV18) E6 and E7 concogenes (International Journal of Oncology 6:167-174, 1995). The immortalized osteoblastic cells were selected in medium containing G418 (600 µg/ml).
(§4) The human U937 moncytic cell line (cloned from the commercially available cells by serial dilution) was maintained in RPMI 1640 medium containing 10% FCS and 1% antibiotic-antimycotic agent.
The co-culture system was established as follows. Human osteoblastic cells were plated in 96-well dishes at a density of 5 x 10^3 cells/well. U937 cells in RPMI medium (5 x 10^4 cells/well) were layered over the osteoblasts. The formation of osteoclast-like cells was induced with 100 nM PMA. To determine the effects of compounds or the neutralizing antibodies to IL-6 (Sigma) and GM-CSF (Pharmingen) on the formation of osteoclast-like cells, the compounds or the antibodies were added 30 minutes prior to the addition of PMA. The cultures were stopped after 96 hrs and processed for histochemical or immunohistochemical analyses.

[5] = molecular target: T3, human full-length ER-β (Homo sapiens, UniProt Q92731); experiment: IL-6 production in U2OS osteosarcoma cells stably transfected with ER-β; type: cell-based; conditions: for ER subtype specificity (ER-β versus ER-α): comparison of the U2OS IL-6 IC50 values of Table 4
T3 construct: expression vectors for human full-length ER-α or ER-β; expressed in transfected cells
Experimental: as §1, §2

[6] = system: GM-CSF; experiment: Human bone cell co-culture system, GM-CSF production; type: cell-based
Experimental: as §3, §4
The co-culture system was established as follows. Human osteoblastic cells were plated in 96-well dishes at a density of 5 x 10^3 cells/well. U937 cells in RPMI medium (5 x 10^4 cells/well) were layered over the osteoblasts. The formation of osteoclast-like cells was induced with 100 nM PMA. […]

[7] = 3-day immature rat uterine bioassay; conditions: s.c. administration
[8] = molecular target: human recombinant ER-β (Homo sapiens, UniProt Q92731); experiment: Solid phase ER binding assay (3H-estradiol competition), ER-β; conditions: ER binding assay of Example 18
[9] = 28-day uterine bioassay in ovariectomized rats; type: in vivo
[10] = ER binding assay of Example 18, read-out: ER Binding Assay ER-α (Ki)

T3 sequence (Q92731 whole entry): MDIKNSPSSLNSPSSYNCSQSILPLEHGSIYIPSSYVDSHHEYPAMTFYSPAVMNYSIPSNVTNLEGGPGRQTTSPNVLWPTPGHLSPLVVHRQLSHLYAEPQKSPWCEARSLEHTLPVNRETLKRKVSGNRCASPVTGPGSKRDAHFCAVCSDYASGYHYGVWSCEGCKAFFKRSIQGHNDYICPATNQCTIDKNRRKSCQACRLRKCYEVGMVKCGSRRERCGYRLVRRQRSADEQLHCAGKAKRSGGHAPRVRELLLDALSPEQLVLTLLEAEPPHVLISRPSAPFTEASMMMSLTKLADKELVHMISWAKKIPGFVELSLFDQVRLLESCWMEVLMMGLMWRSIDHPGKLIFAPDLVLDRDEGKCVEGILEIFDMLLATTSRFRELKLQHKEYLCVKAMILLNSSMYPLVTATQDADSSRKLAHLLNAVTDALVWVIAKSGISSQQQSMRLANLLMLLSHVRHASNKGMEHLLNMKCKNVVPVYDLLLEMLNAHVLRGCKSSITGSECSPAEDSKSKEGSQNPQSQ
human recombinant ER-β, sequence (Q92731 whole entry): as above

Structure (SMILES): O=c1oc2cc(O)ccc2c(Cc2ccc(OCCN3CCCCC3)cc2)c1-c1ccccc1 [Compound No. 1, 3-PHENYL-4-[4-(2-{PIPERIDIN-1-YL})ETHOXY]-BENZYL-7-HYDROXYCOUMARIN]
Ki ([2]; read-out: Solid Phase ER Binding Ki (nM) ER-α, ER-α 15 nM, 30 nM 3H-estradiol, room temperature, average of at least 3 experiments): 1.4 nM | IC50 ([6]; human bone co-culture system of Example 12, read-out: IC50 with respect to GM-CSF): 38 nM | increase in uterine weight ([7]; not statistically different from vehicle (PEG-400)): ~30% | IC50 ([4]; read-out: IC50 with respect to IL-6): 10 nM

Structure (SMILES): CCN(CC)CCOc1ccc(-c2c(-c3ccccc3)c(=O)oc3cc(O)ccc23)cc1 [Compound No. 38]
Ki [2, 10]: 690 nM | Ki [8]: 1560 nM | IC50 [1]: > 10000 nM | IC50 [3]: > 1000 nM | IC50 ([4]; read-out: IL-6 Activity (IC50)): 175 nM | IC50 [5]: 165 nM | ER subtype specificity (ER-β versus ER-α) [5]: specificity for ER-β over ER-α

Structure (SMILES): C[C@]12CC[C@@H]3c4ccc(O)cc4CC[C@H]3[C@@H]1CC[C@@H]2O [Estradiol, 17β-estradiol]
IC50 [1]: > 1000 nM | production of GM-CSF ([6]; co-culture system): reduced the production of GM-CSF | increase in uterine weight [7]: 4.5 fold | production of IL-6 ([4]; co-culture system): suppress the production of IL-6 | increase in uterine weight ([9]; ovariectomized rats, 28-day, daily s.c. injection): 550%

Other lines, results leading:

IC50 [1]: > 1000 nM
Structure (SMILES): CCC(=C(c1ccc(O)cc1)c1ccc(OCCN(C)C)cc1)c1ccccc1 [4-Hydroxy-Tamoxifen]

Ki [2, 10]: > 10000 nM | IC50 [1]: > 1000 nM | IC50 [3]: > 1000 nM | IC50 ([4]; read-out: IL-6 Activity (IC50)): > 1000 nM | IC50 [5]: > 1000 nM
Structure (SMILES): CCN(CC)CCOc1ccc(-c2c(-c3ccccc3)c(=O)oc3ccccc23)cc1 ["L-20", reference compound]

IC50 [1]: > 1000 nM | increase in uterine weight ([7]; 1mg/kg dose): up to 50% | increase in uterine weight ([9]; female, rat, in vivo, sc, 28 day): ~70%
Structure (SMILES): O=C(c1ccc(OCCN2CCCCC2)cc1)c1c(-c2ccc(O)cc2)sc2cc(O)ccc12 [Raloxifene HCl, Raloxifene Hydrochloride]

IC50 [1]: > 1000 nM | IC50 [3]: 325 nM | IC50 [5]: 51 nM | ER subtype specificity (ER-β versus ER-α) [5]: specificity for ER-β over ER-α
Structure (SMILES): O=c1oc2cc(O)ccc2c(-c2ccc(OCCN3CCCCC3)cc2)c1-c1ccc(Cl)cc1 [compound 16]
